Active and inactive are the calls of the source. No cut-off for these calls is given here.
Experiments:
[1] = target: T1, TNF receptor-associated factor 6 (Homo sapiens) (UniProt Q9Y4K3); conditions: 200 uM
T1 sequence (whole entry): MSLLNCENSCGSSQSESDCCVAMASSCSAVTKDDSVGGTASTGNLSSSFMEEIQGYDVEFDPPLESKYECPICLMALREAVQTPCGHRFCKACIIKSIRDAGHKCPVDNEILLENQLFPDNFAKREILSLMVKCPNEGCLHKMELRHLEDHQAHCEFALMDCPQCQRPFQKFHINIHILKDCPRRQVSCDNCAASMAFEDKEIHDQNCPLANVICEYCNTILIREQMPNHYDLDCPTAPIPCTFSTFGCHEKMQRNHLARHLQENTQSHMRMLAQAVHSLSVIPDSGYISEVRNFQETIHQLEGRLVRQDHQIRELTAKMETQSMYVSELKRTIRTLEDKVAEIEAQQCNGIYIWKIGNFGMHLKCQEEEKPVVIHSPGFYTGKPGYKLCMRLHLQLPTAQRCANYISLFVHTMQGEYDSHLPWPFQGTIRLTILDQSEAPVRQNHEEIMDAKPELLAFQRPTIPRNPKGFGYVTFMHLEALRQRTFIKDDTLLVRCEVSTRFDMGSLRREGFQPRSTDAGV
Description: Competitive inhibition of human TRAF6 interaction with biotinylated RANK peptide at 200 uM by NMR interaction analysis

[2] = target: T1, TNF receptor-associated factor 6 (Homo sapiens); experiment: Induction of human TRAF6 aggregation by NMR titration
Monocyte [3] = experiment: Inhibition of BALB/c mouse primary bone marrow derived monocytes differentiation after 7 days at 150 uM by osteoclast differentiation assay; format: functional; conditions: 168 h
[4] = target: T2, TNF receptor-associated factor 6 (Homo sapiens, UniProt Q9Y4K3); experiment: Inhibition of human TRAF6 interaction with biotinylated RANK peptide by NMR interaction analysis
T2 sequence (Q9Y4K3 whole entry): T1 sequence (whole entry)

[5] = target: T1, TNF receptor-associated factor 6 (Homo sapiens); experiment: Binding affinity to human TRAF6 using immobilized biotinylated RANK peptide from by SPR analysis
Monocyte [6] = experiment: Inhibition of BALB/c mouse primary bone marrow derived monocytes differentiation after 7 days by osteoclast differentiation assay; format: functional, cell-based
[7] = Cytotoxicity against BALB/c mouse primary bone marrow derived monocytes after 7 days by osteoclast differentiation/AlamarBlue assay; format: cell-based; conditions: monocyte, 168 h

| inhibition [1] | Activity [2] | Kd [4] [µM] | inhibition [5] | SMILES | inhibition at 150 µM (Monocyte [3]) [%] | inhibition (Monocyte [6]) | Activity [7] |
| --- | --- | --- | --- | --- | --- | --- | --- |
| Active | inactive | 35 |  | COc1ccc(S(=O)(=O)NC(=O)c2ccc(NC(=O)Cn3c(=O)sc4ccc(Cl)cc43)cc2)cc1Cl | 40 |  |  |
|  |  | 990 |  | CS(=O)(=O)NC(=O)c1ccc(NC(=O)Cn2c(=O)sc3ccc(Cl)cc32)cc1 |  |  |  |
|  |  | 1700 |  | O=C(Cn1c(=O)sc2ccc(Cl)cc21)Nc1ccc(C(=O)O)cc1 |  |  |  |
|  | inactive | 1900 | Active | O=C(Cn1c(=O)sc2ccccc21)Nc1ccc(C(=O)O)cc1 |  | Active | Non-toxic |
